Measured values as given in PMC6199744, “Development of Chemical Proteomics for the Folateome and Analysis of the Kinetoplastid Folateome” (ACS Infectious Diseases, 2018).
Read-outs that look alike come from different tables or passages of the source.

Columns and labels:
Type in all cases: binding
[1] = target: T1, HeLa cell extract proteins (Homo sapiens, UniProt P05141)
T1 construct: endogenous in cells; host or cells: HeLa cell extract
T1 sequence (P05141 1-298): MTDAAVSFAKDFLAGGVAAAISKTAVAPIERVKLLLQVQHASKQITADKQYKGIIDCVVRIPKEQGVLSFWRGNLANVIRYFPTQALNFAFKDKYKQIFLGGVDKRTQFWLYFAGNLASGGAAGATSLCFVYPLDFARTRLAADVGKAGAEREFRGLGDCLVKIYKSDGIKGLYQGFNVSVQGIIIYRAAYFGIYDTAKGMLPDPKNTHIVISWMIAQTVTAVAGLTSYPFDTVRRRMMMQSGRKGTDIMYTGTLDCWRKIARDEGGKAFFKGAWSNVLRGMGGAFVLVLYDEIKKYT

[2] = target: T2, HeLa cell extract proteins (Homo sapiens, UniProt P31949)
T2 construct: endogenous in cells; host or cells: HeLa cell extract
T2 sequence (P31949 1-105): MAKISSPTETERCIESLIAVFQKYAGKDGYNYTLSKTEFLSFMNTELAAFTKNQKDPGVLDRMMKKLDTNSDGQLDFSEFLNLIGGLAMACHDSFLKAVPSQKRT

[3] = target: T3, HeLa cell extract proteins (Homo sapiens, UniProt Q9Y230)
T3 construct: endogenous in cells; host or cells: HeLa cell extract

[4] = target: T4, HeLa cell extract proteins (Homo sapiens, UniProt O75874)
T4 construct: endogenous in cells; host or cells: HeLa cell extract

[5] = target: T5, HeLa cell extract proteins (Homo sapiens, UniProt P52907)
T5 construct: endogenous in cells; host or cells: HeLa cell extract

[6] = target: T6, HeLa cell extract proteins (Homo sapiens, UniProt Q92621)
T6 construct: endogenous in cells; host or cells: HeLa cell extract

[7] = target: T7, HeLa cell extract proteins (Homo sapiens, UniProt Q9UK99)
T7 construct: endogenous in cells; host or cells: HeLa cell extract
T7 sequence (Q9UK99 1-471): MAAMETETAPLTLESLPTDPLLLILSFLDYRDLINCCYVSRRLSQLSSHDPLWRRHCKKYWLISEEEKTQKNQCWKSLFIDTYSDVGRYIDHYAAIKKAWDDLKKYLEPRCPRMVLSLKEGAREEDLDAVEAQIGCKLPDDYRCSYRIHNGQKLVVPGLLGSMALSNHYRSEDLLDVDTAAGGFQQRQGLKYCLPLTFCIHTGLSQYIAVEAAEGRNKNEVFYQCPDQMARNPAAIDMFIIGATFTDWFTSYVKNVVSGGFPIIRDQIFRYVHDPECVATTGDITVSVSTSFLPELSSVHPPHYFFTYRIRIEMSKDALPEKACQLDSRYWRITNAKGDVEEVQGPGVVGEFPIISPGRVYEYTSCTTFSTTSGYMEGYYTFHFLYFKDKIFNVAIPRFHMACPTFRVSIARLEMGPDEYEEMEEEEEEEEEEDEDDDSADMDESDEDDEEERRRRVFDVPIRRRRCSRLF

[8] = target: T8, HeLa cell extract proteins (Homo sapiens, UniProt Q9H2U1)
T8 construct: endogenous in cells; host or cells: HeLa cell extract
T8 sequence (Q9H2U1 1-1008): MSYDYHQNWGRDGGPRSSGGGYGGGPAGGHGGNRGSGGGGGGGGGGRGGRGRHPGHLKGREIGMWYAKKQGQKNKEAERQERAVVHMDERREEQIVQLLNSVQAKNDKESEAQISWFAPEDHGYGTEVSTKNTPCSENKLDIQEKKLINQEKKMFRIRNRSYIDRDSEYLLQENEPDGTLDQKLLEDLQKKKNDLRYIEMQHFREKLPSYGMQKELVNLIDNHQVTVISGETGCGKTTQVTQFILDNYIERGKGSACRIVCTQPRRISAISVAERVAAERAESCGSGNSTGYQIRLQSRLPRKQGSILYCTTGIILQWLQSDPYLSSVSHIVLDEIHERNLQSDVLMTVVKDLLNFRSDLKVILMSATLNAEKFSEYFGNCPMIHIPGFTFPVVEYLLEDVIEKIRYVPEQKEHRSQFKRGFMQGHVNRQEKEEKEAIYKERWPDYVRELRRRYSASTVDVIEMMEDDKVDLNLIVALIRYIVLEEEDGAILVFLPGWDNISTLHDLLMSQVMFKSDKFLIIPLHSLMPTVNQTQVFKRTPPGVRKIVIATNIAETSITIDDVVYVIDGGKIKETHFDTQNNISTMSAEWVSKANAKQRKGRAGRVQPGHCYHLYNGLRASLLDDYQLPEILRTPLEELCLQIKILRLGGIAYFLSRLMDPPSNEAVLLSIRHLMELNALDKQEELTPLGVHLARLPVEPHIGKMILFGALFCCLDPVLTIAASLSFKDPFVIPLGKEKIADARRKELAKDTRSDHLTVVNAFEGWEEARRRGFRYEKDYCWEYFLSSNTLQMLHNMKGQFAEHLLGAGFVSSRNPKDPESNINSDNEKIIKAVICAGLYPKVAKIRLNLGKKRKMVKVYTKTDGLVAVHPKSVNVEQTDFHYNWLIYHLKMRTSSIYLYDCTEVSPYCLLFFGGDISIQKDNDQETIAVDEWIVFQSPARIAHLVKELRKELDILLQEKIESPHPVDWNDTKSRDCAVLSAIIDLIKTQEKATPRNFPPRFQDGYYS

[9] = target: T9, HeLa cell extract proteins (Homo sapiens, UniProt Q9HCC0)
T9 construct: endogenous in cells; host or cells: HeLa cell extract
T9 sequence (Q9HCC0 23-563): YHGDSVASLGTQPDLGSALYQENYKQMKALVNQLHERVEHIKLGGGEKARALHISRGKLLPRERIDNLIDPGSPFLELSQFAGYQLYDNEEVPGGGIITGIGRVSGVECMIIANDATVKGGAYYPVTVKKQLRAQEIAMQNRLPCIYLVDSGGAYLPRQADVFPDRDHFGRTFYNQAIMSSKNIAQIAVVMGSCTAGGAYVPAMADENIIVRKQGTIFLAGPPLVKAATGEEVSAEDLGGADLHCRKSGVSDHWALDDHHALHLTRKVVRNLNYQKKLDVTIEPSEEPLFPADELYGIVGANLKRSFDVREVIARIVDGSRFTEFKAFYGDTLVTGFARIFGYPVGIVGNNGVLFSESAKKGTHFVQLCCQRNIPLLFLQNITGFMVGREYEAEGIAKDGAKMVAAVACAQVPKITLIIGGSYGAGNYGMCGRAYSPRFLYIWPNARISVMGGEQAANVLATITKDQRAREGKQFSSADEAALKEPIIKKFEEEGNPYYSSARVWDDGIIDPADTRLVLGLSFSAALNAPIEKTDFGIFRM

[10] = HeLa, protein S100A11 (PROTEIN S100-A11.)
[11] = HeLa, protein IDH1 (ISOCITRATE DEHYDROGENASE [NADP] CYTOPLASMIC.)
[12] = HeLa, protein FBXO3 (ISOFORM 1 OF F-BOX ONLY PROTEIN 3)
[13] = HeLa, protein DHX36 (ISOFORM 1 OF PROBABLE ATP-DEPENDENT RNA HELICASE DHX36)

T3 sequence (Q9Y230 whole entry): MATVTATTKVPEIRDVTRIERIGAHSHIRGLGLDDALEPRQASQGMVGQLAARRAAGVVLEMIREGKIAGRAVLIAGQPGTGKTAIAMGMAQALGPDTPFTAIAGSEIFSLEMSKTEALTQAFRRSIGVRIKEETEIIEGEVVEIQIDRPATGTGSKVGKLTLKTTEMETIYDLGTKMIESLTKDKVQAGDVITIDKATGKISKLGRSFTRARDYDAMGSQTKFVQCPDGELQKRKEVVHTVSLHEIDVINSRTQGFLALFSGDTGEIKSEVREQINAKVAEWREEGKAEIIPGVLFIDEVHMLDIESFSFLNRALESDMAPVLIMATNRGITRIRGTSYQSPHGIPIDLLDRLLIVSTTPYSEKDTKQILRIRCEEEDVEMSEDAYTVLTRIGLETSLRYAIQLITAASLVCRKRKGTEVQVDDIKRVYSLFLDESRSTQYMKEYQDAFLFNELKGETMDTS
T4 sequence (O75874 whole entry): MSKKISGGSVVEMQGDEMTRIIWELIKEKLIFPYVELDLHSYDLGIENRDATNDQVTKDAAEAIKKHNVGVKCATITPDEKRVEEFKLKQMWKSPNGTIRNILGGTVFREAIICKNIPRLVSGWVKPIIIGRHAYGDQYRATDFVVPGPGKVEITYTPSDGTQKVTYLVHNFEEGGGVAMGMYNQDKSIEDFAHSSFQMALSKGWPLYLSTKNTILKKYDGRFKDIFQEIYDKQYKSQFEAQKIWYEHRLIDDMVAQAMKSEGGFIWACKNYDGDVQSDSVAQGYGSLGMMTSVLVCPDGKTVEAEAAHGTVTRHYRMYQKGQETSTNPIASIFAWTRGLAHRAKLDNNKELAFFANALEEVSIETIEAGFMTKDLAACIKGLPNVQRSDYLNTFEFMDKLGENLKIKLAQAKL
T6 sequence (Q92621 whole entry): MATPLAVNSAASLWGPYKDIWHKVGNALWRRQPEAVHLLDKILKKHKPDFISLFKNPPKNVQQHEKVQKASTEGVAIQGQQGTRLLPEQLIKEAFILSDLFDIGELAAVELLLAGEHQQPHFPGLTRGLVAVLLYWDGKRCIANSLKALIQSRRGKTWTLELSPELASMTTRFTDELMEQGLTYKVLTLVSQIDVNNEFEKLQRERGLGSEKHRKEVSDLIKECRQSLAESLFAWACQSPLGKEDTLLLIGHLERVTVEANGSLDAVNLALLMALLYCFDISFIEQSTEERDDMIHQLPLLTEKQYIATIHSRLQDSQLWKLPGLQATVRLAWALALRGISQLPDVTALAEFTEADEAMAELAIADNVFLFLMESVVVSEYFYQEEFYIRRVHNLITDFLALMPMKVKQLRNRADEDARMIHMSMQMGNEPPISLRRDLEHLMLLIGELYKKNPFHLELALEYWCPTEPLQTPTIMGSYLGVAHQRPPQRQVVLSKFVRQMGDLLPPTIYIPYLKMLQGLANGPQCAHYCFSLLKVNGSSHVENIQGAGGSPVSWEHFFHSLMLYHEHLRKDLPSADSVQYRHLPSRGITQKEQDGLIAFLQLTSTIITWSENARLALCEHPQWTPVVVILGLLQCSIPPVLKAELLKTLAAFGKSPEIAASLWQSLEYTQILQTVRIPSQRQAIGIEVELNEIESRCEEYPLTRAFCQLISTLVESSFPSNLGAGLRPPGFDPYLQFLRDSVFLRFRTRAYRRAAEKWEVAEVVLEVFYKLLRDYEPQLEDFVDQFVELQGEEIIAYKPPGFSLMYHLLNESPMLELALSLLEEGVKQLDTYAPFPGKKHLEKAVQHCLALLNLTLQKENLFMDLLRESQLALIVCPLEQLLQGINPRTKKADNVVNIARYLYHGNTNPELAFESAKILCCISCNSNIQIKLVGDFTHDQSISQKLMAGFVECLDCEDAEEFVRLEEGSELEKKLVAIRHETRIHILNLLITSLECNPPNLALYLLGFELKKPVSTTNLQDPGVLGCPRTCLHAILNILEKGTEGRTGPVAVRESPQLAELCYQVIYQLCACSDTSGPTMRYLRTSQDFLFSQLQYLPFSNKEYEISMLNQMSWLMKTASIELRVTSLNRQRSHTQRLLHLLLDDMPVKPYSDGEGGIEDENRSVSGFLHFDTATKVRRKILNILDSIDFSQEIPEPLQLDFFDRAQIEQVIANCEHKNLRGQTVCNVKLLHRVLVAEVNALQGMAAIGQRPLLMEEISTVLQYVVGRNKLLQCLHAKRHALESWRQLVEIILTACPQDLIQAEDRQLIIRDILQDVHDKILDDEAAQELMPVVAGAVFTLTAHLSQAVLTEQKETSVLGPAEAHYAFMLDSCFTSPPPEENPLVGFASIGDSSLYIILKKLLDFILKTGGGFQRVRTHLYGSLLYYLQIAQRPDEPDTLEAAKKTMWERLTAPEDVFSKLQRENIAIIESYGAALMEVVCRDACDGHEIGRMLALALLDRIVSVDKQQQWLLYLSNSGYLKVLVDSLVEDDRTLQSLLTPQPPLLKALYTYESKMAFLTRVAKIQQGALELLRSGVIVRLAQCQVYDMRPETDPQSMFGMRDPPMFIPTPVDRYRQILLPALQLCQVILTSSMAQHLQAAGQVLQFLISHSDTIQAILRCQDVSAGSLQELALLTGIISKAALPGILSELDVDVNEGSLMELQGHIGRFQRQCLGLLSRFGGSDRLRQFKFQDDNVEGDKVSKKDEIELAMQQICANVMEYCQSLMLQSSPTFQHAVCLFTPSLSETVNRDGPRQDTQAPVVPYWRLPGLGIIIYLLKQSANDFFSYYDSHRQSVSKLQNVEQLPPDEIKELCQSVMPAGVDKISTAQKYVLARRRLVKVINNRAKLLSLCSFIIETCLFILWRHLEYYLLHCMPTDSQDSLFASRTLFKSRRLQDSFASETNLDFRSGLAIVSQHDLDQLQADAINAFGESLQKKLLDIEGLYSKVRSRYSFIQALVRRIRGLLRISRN

Row | Compound | fold changes relative to vehicle control ([1]; captured protein SLC25A5, HeLa) | fold changes relative to vehicle control [2, 10] | fold changes relative to vehicle control ([3]; protein RUVBL2, HeLa) | fold changes relative to vehicle control [4, 11] | fold changes relative to vehicle control ([5]; protein CAPZA1, HeLa) | fold changes relative to vehicle control ([6]; captured protein NUP205, HeLa) | fold changes relative to vehicle control ([7]; protein FBXO3, HeLa) | fold changes relative to vehicle control ([8]; protein DHX36, HeLa) | fold changes relative to vehicle control ([9]; captured protein MCCC2, HeLa) | fold changes relative to vehicle control ([1]; HeLa, protein SLC25A5) | fold changes relative to vehicle control ([2]; HeLa, protein S100A11) | fold changes relative to vehicle control ([4]; HeLa, captured protein IDH1) | fold changes relative to vehicle control ([5]; HeLa, protein CAPZA1) | fold changes relative to vehicle control ([6]; HeLa, captured protein NUP205) | fold changes relative to vehicle control [7, 12] | fold changes relative to vehicle control [8, 13] | fold changes relative to vehicle control ([9]; HeLa, protein MCCC2) | further results
1 | Nc1nc2cccc(-c3ccccc3)c2n1Cc1ccc(Cl)c(Cl)c1 [compound 3] | 1.02 | 1.08 fold | 1.02 | 0.95 fold | 1.15 | 1.18 | 0.91 | 0.98 | 0.86 | – | – | – | – | – | – | – | – | –
2 | CCCCCCOc1ccc(Cc2cnc(N)nc2N)cc1 [compound 1] | 0.96 | 1.66 fold | 1.03 | 1.52 fold | 1.13 | 1.03 | 0.98 | 1.17 | 0.78 | – | – | – | – | – | – | – | – | –
3 | NCCCNc1ccc(C(=O)NC(CCC(=O)O)C(=O)O)cc1 (stereo not drawn) [compound 7] | – | – | 0.95 | – | – | – | – | – | – | 0.96 | 1.2 | 0.96 | 1.09 | 1.16 | 0.99 | 1.03 | 1 | –
4 | CCCCCCOc1cccc(Cc2cnc(N)nc2N)c1 [compound 2] | 0.9 | 2.47 fold | 1.34 | 2.46 fold | 1.32 | 1.1 | 1.05 | 0.91 | 1.08 | – | – | – | – | – | – | – | – | –
5 | NCCOCCOCC(=O)Nc1nc2ncc(CNc3ccc(C(=O)NC(CCC(=O)O)C(=O)O)cc3)nc2c(=O)[nH]1 (stereo not drawn) [compound 6] | – | – | 1.06 | – | – | – | – | – | – | 0.97 | 1.59 | 1.29 | 1.11 | 1.16 | 1.01 | 1.07 | 1 | –
6 | Nc1nc2[nH]cc(CCc3ccc(C(=O)N[C@@H](CCC(=O)O)C(=O)O)cc3)c2c(=O)[nH]1 [PTX, pemetrexed] | – | – | – | – | – | – | – | – | – | – | – | – | – | – | – | – | – | fold changes relative to vehicle control [1]: 0.9; fold changes relative to vehicle control [2]: 1.29; fold changes relative to vehicle control [3]: 0.87; fold changes relative to vehicle control [4]: 1.18; fold changes relative to vehicle control [5]: 1.02; fold changes relative to vehicle control [6]: 1.09; fold changes relative to vehicle control [7]: 1.04; fold changes relative to vehicle control [8]: 0.99; fold changes relative to vehicle control [9]: 0.87
7 | Nc1nc2c(c(=O)[nH]1)N(C=O)C(CNc1ccc(C(=O)N[C@@H](CCC(=O)O)C(=O)O)cc1)CN2 (stereo partly drawn) [LEU, leucovorin] | – | – | 0.85 | – | – | – | – | – | – | 0.84 | 1.32 | 1.14 | 0.89 | 1.03 | 1.11 | 1.12 | 0.94 | –
